Assay results published in ChEMBL document CHEMBL4376865, “Discovery and Characterization of 1H-1,2,3-Triazole Derivatives as Novel Prostanoid EP4 Receptor Antagonists for Cancer Immunotherapy” (J Med Chem, 2020).

Experiments:
CYP2E1 = CYP2E1 (Homo sapiens, UniProt P05181); test: Inhibition of CYP2E1 in human liver microsomes at 20 uM using chlorzoxazone as substrate incubated for 60 mins by HPLC analysis relative to control; type: ADME; conditions: probe chlorzoxazone
CYP2D6 = CYP2D6 (Homo sapiens, UniProt P10635); test: Inhibition of CYP2D6 in human liver microsomes at 20 uM using dextromethorphan as substrate incubated for 60 mins by HPLC analysis relative to control; type: ADME; conditions: probe dextromethorphan
Chain of CYP2D6 (P10635 whole entry): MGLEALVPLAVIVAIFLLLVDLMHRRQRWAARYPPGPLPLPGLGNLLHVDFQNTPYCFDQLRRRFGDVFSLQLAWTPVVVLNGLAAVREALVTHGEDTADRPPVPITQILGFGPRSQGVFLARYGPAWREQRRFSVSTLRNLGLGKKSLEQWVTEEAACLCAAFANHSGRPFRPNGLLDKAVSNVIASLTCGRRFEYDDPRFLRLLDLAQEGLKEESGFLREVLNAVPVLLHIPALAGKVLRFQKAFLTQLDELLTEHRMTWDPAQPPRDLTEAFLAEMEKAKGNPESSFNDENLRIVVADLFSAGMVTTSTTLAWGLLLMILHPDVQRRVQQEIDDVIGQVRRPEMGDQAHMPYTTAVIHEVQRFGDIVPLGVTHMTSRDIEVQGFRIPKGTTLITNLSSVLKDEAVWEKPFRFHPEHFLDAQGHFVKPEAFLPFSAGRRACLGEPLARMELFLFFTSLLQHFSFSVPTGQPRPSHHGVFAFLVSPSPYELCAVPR

[1] = molecular target: Prostaglandin E2 receptor EP4 subtype (Mus musculus, UniProt P32240); test: Antagonist activity at mouse EP4 expressed in CHO cells coexpressing G16-alpha assessed as intracellular calcium flux preincubated for 15 mins followed by addition of PGE2 by calcium flux assay; type: functional, cell-based
Chain of Prostaglandin E2 receptor EP4 subtype (Mus musculus, UniProt P32240) (P32240 whole entry): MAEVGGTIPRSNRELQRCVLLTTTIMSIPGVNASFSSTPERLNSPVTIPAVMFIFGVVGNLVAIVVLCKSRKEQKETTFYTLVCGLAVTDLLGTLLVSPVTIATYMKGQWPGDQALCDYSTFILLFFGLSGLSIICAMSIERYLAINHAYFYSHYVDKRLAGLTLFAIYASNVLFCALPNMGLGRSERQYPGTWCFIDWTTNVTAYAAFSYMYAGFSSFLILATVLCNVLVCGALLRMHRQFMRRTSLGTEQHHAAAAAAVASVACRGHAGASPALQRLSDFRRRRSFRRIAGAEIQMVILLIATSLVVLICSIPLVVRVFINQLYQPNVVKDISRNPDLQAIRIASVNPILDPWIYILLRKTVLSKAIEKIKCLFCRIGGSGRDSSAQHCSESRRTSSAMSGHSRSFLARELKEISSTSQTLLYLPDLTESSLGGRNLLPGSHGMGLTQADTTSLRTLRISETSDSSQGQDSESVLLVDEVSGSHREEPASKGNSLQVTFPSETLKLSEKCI

[2] = molecular target: T1, Prostaglandin E2 receptor EP1 subtype (Homo sapiens, UniProt P34995); test: Antagonist activity at human EP1 expressed in CHO cells coexpressing G16-alpha assessed as intracellular calcium flux preincubated for 15 mins followed by addition of PGE2 by calcium flux assay; type: functional, cell-based
T1 sequence (P34995 whole entry): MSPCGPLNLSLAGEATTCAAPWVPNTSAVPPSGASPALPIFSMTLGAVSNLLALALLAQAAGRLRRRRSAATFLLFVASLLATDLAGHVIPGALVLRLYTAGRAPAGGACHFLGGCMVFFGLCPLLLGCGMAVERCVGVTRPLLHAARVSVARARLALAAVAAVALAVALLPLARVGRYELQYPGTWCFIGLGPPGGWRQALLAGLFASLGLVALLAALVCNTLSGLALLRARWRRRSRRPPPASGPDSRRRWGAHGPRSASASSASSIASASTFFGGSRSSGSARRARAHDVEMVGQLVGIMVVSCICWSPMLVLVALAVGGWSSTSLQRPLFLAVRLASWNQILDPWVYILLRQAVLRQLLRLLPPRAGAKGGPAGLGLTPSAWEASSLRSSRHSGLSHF

[3] = Metabolic stability in human liver microsomes assessed as compound remaining at 10 uM incubated for 1 hr
[4] = Metabolic stability in CD1 mouse liver microsomes assessed as compound remaining at 10 uM incubated for 1 hr
CYP1A2 = molecular target: T2, CYP1A2 (Homo sapiens, UniProt P05177); test: Inhibition of CYP1A2 in human liver microsomes at 20 uM using phenacetin as substrate incubated for 30 mins by HPLC analysis relative to control; type: ADME; conditions: probe phenacetin
T2 sequence (P05177 whole entry): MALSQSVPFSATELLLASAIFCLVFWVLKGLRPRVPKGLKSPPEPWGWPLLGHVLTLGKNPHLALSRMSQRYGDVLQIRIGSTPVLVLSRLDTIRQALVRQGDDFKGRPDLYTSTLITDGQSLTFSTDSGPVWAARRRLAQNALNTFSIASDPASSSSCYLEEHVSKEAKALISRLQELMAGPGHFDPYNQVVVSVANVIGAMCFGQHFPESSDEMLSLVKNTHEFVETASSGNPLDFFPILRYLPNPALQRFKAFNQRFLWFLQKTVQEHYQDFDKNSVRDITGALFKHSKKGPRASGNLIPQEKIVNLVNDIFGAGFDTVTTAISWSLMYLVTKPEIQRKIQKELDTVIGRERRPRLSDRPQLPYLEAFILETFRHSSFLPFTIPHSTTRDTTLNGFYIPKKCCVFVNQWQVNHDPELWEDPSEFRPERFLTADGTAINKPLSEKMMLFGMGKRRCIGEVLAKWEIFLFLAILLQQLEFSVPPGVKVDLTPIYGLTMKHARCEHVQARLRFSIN

CYP2B6 = molecular target: T3, CYP2B6 (Homo sapiens, UniProt P20813); test: Inhibition of CYP2B6 in human liver microsomes at 20 uM incubated for 60 mins by HPLC analysis relative to control; type: ADME
T3 sequence (P20813 whole entry): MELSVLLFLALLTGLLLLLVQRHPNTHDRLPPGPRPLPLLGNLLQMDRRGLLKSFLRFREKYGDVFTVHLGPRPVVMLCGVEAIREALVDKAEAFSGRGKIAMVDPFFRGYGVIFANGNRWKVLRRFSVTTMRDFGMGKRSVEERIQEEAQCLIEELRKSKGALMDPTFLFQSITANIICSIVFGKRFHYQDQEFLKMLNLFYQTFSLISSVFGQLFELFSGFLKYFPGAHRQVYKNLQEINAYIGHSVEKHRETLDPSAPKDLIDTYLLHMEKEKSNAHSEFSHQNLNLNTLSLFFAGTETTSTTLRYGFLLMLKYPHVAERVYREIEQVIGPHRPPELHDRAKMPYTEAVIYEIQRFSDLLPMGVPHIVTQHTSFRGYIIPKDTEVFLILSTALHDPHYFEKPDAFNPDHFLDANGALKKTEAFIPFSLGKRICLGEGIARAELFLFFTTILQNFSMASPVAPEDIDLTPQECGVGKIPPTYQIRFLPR

CYP2C9 = CYP2C9 (Homo sapiens, UniProt P11712); test: Inhibition of CYP2C9 in human liver microsomes at 20 uM using tolbutamide as substrate incubated for 60 mins by HPLC analysis relative to control; type: ADME; conditions: probe tolbutamide
Chain of CYP2C9 (P11712 whole entry): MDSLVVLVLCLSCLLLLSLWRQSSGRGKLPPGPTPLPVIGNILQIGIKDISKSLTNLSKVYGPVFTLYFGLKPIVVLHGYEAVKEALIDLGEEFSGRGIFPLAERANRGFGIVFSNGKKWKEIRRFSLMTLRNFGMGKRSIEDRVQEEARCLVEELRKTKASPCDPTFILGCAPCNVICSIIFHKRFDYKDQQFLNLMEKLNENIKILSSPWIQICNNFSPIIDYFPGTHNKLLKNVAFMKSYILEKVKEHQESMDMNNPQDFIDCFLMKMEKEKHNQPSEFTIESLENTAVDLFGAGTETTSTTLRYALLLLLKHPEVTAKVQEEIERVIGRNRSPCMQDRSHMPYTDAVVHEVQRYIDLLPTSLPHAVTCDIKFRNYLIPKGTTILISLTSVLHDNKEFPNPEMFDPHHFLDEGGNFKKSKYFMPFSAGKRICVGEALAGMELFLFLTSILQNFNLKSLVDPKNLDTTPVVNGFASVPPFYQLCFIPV

Cytochrome P450 3A4 = Cytochrome P450 3A4 (Homo sapiens, UniProt P08684); test: Inhibition of CYP3A4 in human liver microsomes at 20 uM using testosterone as substrate incubated for 60 mins by HPLC analysis; type: ADME; conditions: 1 h
Chain of Cytochrome P450 3A4 (P08684 whole entry): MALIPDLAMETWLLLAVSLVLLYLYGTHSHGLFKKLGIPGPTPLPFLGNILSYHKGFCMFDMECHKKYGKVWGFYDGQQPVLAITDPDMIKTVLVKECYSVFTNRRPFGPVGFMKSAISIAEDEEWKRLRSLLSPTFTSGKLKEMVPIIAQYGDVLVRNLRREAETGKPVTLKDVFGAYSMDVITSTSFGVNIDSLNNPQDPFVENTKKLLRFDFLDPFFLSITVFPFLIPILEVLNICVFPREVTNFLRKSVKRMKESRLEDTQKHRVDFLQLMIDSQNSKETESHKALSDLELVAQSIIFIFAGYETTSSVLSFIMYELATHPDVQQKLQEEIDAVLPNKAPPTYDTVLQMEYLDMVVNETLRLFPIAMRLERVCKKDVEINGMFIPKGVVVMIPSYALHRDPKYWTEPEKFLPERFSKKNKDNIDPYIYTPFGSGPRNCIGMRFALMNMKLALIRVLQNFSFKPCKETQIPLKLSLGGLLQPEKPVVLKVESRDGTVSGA

[5] = Volume of distribution at steady state in BALB/c mouse at 1 mg/kg, iv measured upto 24 hrs by LC-MS/MS analysis; conditions: in vivo
[6] = Apparent volume of distribution in BALB/c mouse at 1 mg/kg, iv measured upto 24 hrs by LC-MS/MS analysis; conditions: in vivo
[7] = Clearance in BALB/c mouse at 1 mg/kg, iv measured upto 24 hrs by LC-MS/MS analysis; conditions: in vivo
[8] = Half life in BALB/c mouse at 1 mg/kg, iv measured upto 24 hrs by LC-MS/MS analysis; conditions: in vivo
[9] = Half life in BALB/c mouse at 5 mg/kg, po measured upto 24 hrs by LC-MS/MS analysis; conditions: in vivo
[10] = molecular target: Prostaglandin E2 receptor EP4 subtype (Homo sapiens, UniProt P35408)
Chain of Prostaglandin E2 receptor EP4 subtype (Homo sapiens, UniProt P35408) (P35408 whole entry): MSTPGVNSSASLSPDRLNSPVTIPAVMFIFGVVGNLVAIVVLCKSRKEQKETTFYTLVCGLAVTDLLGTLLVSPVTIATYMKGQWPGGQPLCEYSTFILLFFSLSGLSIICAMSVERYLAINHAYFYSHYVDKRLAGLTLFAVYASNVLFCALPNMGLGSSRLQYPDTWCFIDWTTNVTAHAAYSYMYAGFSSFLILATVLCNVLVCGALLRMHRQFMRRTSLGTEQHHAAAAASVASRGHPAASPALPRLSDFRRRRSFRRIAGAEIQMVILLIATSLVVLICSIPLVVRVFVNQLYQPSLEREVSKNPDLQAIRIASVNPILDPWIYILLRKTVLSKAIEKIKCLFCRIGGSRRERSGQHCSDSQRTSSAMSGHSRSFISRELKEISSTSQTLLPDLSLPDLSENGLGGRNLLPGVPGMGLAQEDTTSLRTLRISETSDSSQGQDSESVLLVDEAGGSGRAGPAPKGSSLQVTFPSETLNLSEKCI
Description: Antagonist activity at human EP4 expressed in CHO cells coexpressing G16-alpha assessed as intracellular calcium flux preincubated for 15 mins followed by addition of PGE2 by calcium flux assay

[11] = molecular target: Prostaglandin E2 receptor EP2 subtype (Homo sapiens, UniProt P43116)
Chain of Prostaglandin E2 receptor EP2 subtype (P43116 whole entry): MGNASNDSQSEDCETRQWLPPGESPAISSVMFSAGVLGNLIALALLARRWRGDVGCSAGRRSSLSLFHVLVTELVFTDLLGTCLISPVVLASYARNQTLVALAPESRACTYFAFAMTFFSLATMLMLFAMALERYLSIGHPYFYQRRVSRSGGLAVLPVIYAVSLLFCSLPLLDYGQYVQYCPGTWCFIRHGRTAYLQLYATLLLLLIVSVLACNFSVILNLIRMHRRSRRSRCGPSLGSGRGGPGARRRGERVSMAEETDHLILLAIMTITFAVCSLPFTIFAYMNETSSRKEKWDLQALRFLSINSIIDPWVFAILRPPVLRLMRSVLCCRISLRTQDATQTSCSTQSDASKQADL
Description: Antagonist activity at human EP2 expressed in CHO cells coexpressing G16-alpha assessed as intracellular calcium flux preincubated for 15 mins followed by addition of PGE2 by calcium flux assay

[12] = molecular target: T4, Prostaglandin E2 receptor EP3 subtype (Homo sapiens, UniProt P43115)
T4 sequence (P43115 whole entry): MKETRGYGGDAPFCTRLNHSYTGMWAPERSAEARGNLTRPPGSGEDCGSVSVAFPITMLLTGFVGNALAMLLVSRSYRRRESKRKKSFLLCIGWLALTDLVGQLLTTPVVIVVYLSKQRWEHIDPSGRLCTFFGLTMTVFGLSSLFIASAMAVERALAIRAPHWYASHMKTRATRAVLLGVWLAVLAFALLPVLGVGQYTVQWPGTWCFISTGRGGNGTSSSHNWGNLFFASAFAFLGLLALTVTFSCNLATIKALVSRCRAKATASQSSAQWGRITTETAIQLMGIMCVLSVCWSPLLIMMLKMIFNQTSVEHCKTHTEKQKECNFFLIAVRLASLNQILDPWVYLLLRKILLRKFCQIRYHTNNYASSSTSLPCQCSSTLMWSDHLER
Description: Antagonist activity at human EP3 expressed in CHO cells coexpressing G16-alpha assessed as intracellular calcium flux preincubated for 15 mins followed by addition of PGE2 by calcium flux assay

in vivo [13] = conditions: BALB/c, mouse, iv, 1 mg/kg
in vivo [14] = conditions: BALB/c, mouse, iv, 1 mg/kg; remark: listed apart in the source
in vivo [15] = conditions: BALB/c, mouse, po, 5 mg/kg
Description: Cmax in BALB/c mouse at 5 mg/kg, po measured upto 24 hrs by LC-MS/MS analysis

in vivo [16] = conditions: BALB/c, mouse, po, 5 mg/kg; remark: listed apart in the source
Description: AUC (0 to infinity) in BALB/c mouse at 5 mg/kg, po measured upto 24 hrs by LC-MS/MS analysis

in vivo [17] = conditions: BALB/c, mouse, po, 5 mg/kg; remark: listed apart in the source
Description: Oral bioavailability in BALB/c mouse at 5 mg/kg measured upto 24 hrs by LC-MS/MS analysis

in vitro [18] = conditions: human, liver microsomes
in vitro [19] = conditions: human, liver microsomes; remark: listed apart in the source
in vitro [20] = conditions: CD1, mouse, liver microsomes
in vitro [21] = conditions: CD1, mouse, liver microsomes; remark: listed apart in the source

Chain of CYP2E1 (P05181 whole entry): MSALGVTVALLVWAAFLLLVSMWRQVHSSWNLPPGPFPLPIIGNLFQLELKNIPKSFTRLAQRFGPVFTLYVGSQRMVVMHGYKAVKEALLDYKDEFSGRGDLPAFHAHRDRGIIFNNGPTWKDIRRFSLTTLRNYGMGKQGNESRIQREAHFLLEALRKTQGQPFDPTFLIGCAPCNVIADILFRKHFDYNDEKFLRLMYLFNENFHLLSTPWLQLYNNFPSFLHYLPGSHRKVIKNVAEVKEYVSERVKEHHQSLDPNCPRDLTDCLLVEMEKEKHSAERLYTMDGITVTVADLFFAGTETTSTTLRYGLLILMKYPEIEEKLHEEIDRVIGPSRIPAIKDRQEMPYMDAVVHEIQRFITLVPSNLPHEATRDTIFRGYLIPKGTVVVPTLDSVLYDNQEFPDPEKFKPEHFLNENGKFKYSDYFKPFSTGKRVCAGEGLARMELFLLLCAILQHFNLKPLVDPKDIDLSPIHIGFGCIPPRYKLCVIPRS

inhibition at 1 h, 20 µM (CYP2E1): 63%
inhibition at 1 h, 20 µM (CYP2D6): 25%
IC50 [1]: 27.5 nM
IC50 [2]: > 10000 nM
remaining at 1 h, 10 µM [3]: 106%
remaining at 1 h, 10 µM [4]: 75.5%
inhibition at 0.5 h, 20 µM (CYP1A2): 21%
inhibition at 1 h, 20 µM (CYP2B6): 28%
inhibition at 1 h, 20 µM (CYP2C9): 48%
inhibition (INH) (Cytochrome P450 3A4): Not Active
Vd at 24 h [5]: 4 L/kg
Vd at 24 h [6]: 14.5 L/kg
clearance at 24 h [7]: 50 mL/min/kg
half-life at 24 h [8]: 3.3 h
half-life at 24 h [9]: 4.6 h
IC50 [10]: 12.9 nM
IC50 [11]: > 10000 nM
IC50 [12]: > 10000 nM
Cmax at 24 h (in vivo [13]): 808 ng/mL
AUC(0-inf) at 24 h (in vivo [14]): 332 ng·h/mL
Cmax at 24 h (in vivo [15]): 365 ng/mL
AUC(0-inf) at 24 h (in vivo [16]): 654 ng·h/mL
bioavailability at 24 h (in vivo [17]): 40.9%
half-life at 1 h, 10 µM (in vitro [18]): > 2.42 h
microsomal CLint at 1 h, 10 µM (in vitro [19]): < 9.6 µL/min/mg
half-life at 1 h, 10 µM (in vitro [20]): > 2.42 h
microsomal CLint at 1 h, 10 µM (in vitro [21]): < 9.6 µL/min/mg
SMILES: C[C@H](NC(=O)c1c(-c2ccsc2)nnn1Cc1ccc(C(F)(F)F)cc1)c1ccc(C(=O)O)cc1
